{
  "source": "patent US20190203207A1",
  "about": "“Anabolic Enhancers for Ameliorating Neurodegeneration” (priority 2016, published 2019)",
  "origin": "cited, not measured here",
  "system": "insulin/mTOR signaling pathway",
  "note": "Entries after “also recorded” stand apart in the source; their conditions may differ.",
  "data": [
    {"substance": "insulin", "values": [
      {"measurement": "GLUT1 and HIF1a levels", "setting": "insulin injection, four RP mouse models", "value": "increased levels"},
      {"measurement": "Cone survival / cone degeneration", "setting": "systemic insulin, four RP mouse models (Punzo et al.)", "value": "encouraged cone survival; also recorded: delay degeneration of cones"}
    ]}
  ]
}
